The values below come from US20120214862A1, “MODULATION OF FACTOR 7 EXPRESSION” (ISIS Pharmaceuticals, Inc., priority 2009, published 2012).

In the oligonucleotide strings, read from the 5' end, every base follows the letter of its sugar. An asterisk marks phosphorothioate; unmarked linkages are phosphodiester. Other units and linkages are bracketed, terminal groups are in braces. A string of capitals states the bases alone. e = 2'-O-(2-methoxyethyl) (MOE); [5mC] = 5-methylcytosine; d = 2'-deoxy (DNA)

The first series relates to human Factor 7 mRNA. Description: Antisense inhibition of human Factor 7 mRNA in HepB3 cells, lipofectin, 50 nM, real-time RT-PCR. In kind it is cell-based. The settings on record: Example 1; HepB3 cells, lipofectin, 50 nM, ~24 h, relative to untreated control cells. How it is done:
Antisense oligonucleotides targeted to a Factor 7 nucleic acid were tested for their effects on Factor 7 mRNA in vitro. Cultured HepB3 cells at a density of 4,000 cells per well were transfected using lipofectin reagent with 50 nM antisense oligonucleotide. After a treatment period of approximately 24 hours, RNA was isolated from the cells and Factor 7 mRNA levels were measured by real-time RT-PCR, as described herein. Factor 7 mRNA levels were adjusted according to total RNA content as measured by RIBOGREEN®. Results are presented as percent inhibition of Factor 7, relative to untreated control cells.
(§1) Antisense oligonucleotides targeted to a Factor 7 nucleic acid were designed and tested for their effects on Factor 7 mRNA in vitro. Certain antisense oligonucleotides from Table 3 were also retested for their effects on Factor 7 mRNA in vitro. Cultured HepB3 cells at a density of 4,000 cells per well were transfected using lipofectin reagent with 50 nM antisense oligonucleotide. After a treatment period of approximately 24 hours, RNA was isolated from the cells and Factor 7 mRNA levels were measured by real-time RT-PCR, as described herein. Human Factor 7 primer probe set RTS 2927 was used to measure mRNA levels. Factor 7 mRNA levels were adjusted according to total RNA content as measured by RIBOGREEN®. Results are presented as percent inhibition of Factor 7, relative to untreated control.
as §1, with “tested” for “tested for their effects on Factor 7 mRNA in vitro. Certain antisense oligonucleotides from Table 3 were also retested”
These gapmers were designed by creating gapmers shifted slightly upstream and downstream (i.e. “microwalk”) of the original gapmers from Table 7. Gapmers were also created with various motifs, e.g. 5-10-5 MOE, 3-14-3 MOE, and 2-13-5 MOE. These gapmers were tested in vitro. Cultured HepB3 cells at a density of 4,000 cells per well were transfected using lipofectin reagent with 50 nM antisense oligonucleotide. After a treatment period of approximately 24 hours, RNA was isolated from the cells and Factor 7 mRNA levels were measured by real-time RT-PCR. Factor 7 mRNA levels were adjusted according to total RNA content, as measured by RIBOGREEN®. Results are presented as percent inhibition of Factor 7, relative to untreated control cells.
In general terms: Real-time PCR tracks product formation cycle by cycle.
“407905 (antisense e[5mC]*e[5mC]*eA*eG*eT*dT*d[5mC]*dT*dT*dG*dA*dT*dT*dT*dT*eG*eT*e[5mC]*eG*eA) [compound 407905]”: the “% Inhibition (human Factor 7 mRNA)” value was 40%.

Regarding “407614 (antisense eT*eG*e[5mC]*eA*eG*dT*dA*d[5mC]*dT*dG*d[5mC]*dT*d[5mC]*dA*d[5mC]*eA*eG*e[5mC]*e[5mC]*eG) [compound 407614]”, the “% Inhibition (human Factor 7 mRNA)” value is reported as 78%.

As to “407660 (antisense eG*e[5mC]*eT*e[5mC]*eT*dG*dA*dA*dG*dT*dA*dG*dA*dT*dG*eA*eT*eG*e[5mC]*e[5mC]) [compound 407660]”, the “% Inhibition (human Factor 7 mRNA)” value was 16%.

As to “407897 (antisense eG*e[5mC]*eT*eT*eG*dG*dT*dG*d[5mC]*d[5mC]*d[5mC]*dG*dT*dG*dT*eG*eG*eT*e[5mC]*eA) [compound 407897]”, the “% Inhibition (human Factor 7 mRNA)” value is 77%.

For “407608 (antisense eT*eA*eT*eA*eG*dG*dA*d[5mC]*dT*dG*dG*dA*dG*d[5mC]*dT*eG*eG*eT*e[5mC]*e[5mC]) [compound 407608]”, the “% Inhibition (human Factor 7 mRNA)” value is on record as 13%.

Still in this series, the particulars now being: Example 4; HepB3 cells, lipofectin, 50 nM, ~24 h, relative to untreated control.
As for “422190 (antisense eG*e[5mC]*eG*d[5mC]*dG*dG*dA*dA*dG*dA*dA*dG*dG*dG*dA*d[5mC]*dG*eG*eA*eA) [compound 422190]”, the “% Inhibition (human Factor 7 mRNA)” value is 12%.

As to “422272 (antisense eA*e[5mC]*dT*dG*dA*dG*d[5mC]*dG*d[5mC]*dG*dG*dA*dA*dG*dA*eA*eG*eG*eG*eA) [compound 422272]”, the “% Inhibition (human Factor 7 mRNA)” value worked out at 12%.

Consider “422118 (antisense e[5mC]*eG*eG*eA*eA*dG*dA*dA*dG*dG*dG*dA*d[5mC]*dG*dG*eA*eA*eG*eG*eT) [compound 422118]”, for which the “% Inhibition (human Factor 7 mRNA)” value stood at 15%.

For “422197 (antisense eT*eT*eA*d[5mC]*dT*dG*dA*dG*d[5mC]*dG*d[5mC]*dG*dG*dA*dA*dG*dA*eA*eG*eG) [compound 422197]”, the “% Inhibition (human Factor 7 mRNA)” value was 26%.

For the substance “422187 (antisense e[5mC]*eG*eG*dA*dA*dG*dA*dA*dG*dG*dG*dA*d[5mC]*dG*dG*dA*dA*eG*eG*eT) [compound 422187]”, the “% Inhibition (human Factor 7 mRNA)” value is on record as 28%.

For the substance “422267 (antisense eG*e[5mC]*dG*d[5mC]*dG*dG*dA*dA*dG*dA*dA*dG*dG*dG*dA*e[5mC]*eG*eG*eA*eA) [compound 422267]”, the “% Inhibition (human Factor 7 mRNA)” value is reported as 38%.

Staying with this series, now noted: Example 6 microwalk, nucleobases 15098 to 15122 of SEQ ID NO: 1; HepB3, lipofectin, 50 nM, ~24 h.
With “422210 (antisense e[5mC]*eA*eG*d[5mC]*dA*d[5mC]*dA*d[5mC]*dA*dT*dG*dG*dA*dG*dT*d[5mC]*dA*eG*e[5mC]*eA) [compound 422210]”, the “% Inhibition (human Factor 7 mRNA)” value is 25%.

Still in this series, the particulars now being: HepB3 cells, lipofectin, 50 nM antisense oligonucleotide, approximately 24 hours, primer probe set RTS 2927, relative to untreated control.
Regarding “416443 (antisense eG*eA*eG*eG*e[5mC]*dA*dG*dA*dA*dG*d[5mC]*dA*dG*dA*dT*eA*eT*eA*eG*eG) [compound 416443]”, the “% Inhibition of human Factor 7 mRNA levels” value was 17%.

“416561 (antisense eG*eG*eT*eG*eT*dG*dT*dT*d[5mC]*d[5mC]*d[5mC]*dA*dT*dA*dA*eA*eA*e[5mC]*eT*eT) [compound 416561]”: the “% Inhibition of human Factor 7 mRNA levels” value is 16%.

For “416467 (antisense e[5mC]*e[5mC]*e[5mC]*eT*eG*dG*d[5mC]*d[5mC]*d[5mC]*d[5mC]*dA*dG*d[5mC]*dT*dG*eA*e[5mC]*eG*eA*eT) [compound 416467]”, the “% Inhibition of human Factor 7 mRNA levels” value amounted to 55%.

As for “416442 (antisense eA*eG*e[5mC]*eA*eG*dA*dT*dA*dT*dA*dG*dG*dA*d[5mC]*dT*eG*eG*eA*eG*e[5mC]) [compound 416442]”, the “% Inhibition of human Factor 7 mRNA levels” value came to 57%.

As for “416480 (antisense eA*eA*eG*eT*eG*dA*dG*dA*dG*d[5mC]*dT*dA*dA*dA*d[5mC]*eA*eA*e[5mC]*e[5mC]*eG) [compound 416480]”, the “% Inhibition of human Factor 7 mRNA levels” value was found to be 25%.

“416523 (antisense eT*e[5mC]*eT*e[5mC]*eG*dA*dG*dG*dG*d[5mC]*dT*dG*dA*dG*dA*eA*eT*eT*eG*e[5mC]) [compound 416523]”: the “% Inhibition of human Factor 7 mRNA levels” value amounted to 18%.

As to “416514 (antisense eG*eT*eA*eT*eT*dT*dT*d[5mC]*dT*dG*dA*dT*dG*dT*dG*eA*eA*eA*eA*e[5mC]) [compound 416514]”, the “% Inhibition of human Factor 7 mRNA levels” value stood at 8%.

As to “416441 (antisense eA*eG*eA*eT*eA*dT*dA*dG*dG*dA*d[5mC]*dT*dG*dG*dA*eG*e[5mC]*eT*eG*eG) [compound 416441]”, the “% Inhibition of human Factor 7 mRNA levels” value is reported as 32%.

On to “416497 (antisense e[5mC]*eG*eT*eG*e[5mC]*dA*dG*dG*dT*dG*dT*dT*dA*dA*dG*eG*eT*eG*eT*eG) [compound 416497]”, for which the “% Inhibition of human Factor 7 mRNA levels” value turned out to be 0%.

As to “416487 (antisense eG*e[5mC]*eA*eG*eG*dT*dG*d[5mC]*dT*d[5mC]*d[5mC]*d[5mC]*dA*dG*dG*eG*eT*e[5mC]*eT*e[5mC]) [compound 416487]”, the “% Inhibition of human Factor 7 mRNA levels” value is reported as 39%.

As for “416517 (antisense eG*eG*eG*eT*eG*d[5mC]*dA*dG*dT*dA*dG*d[5mC]*dA*dG*dA*eT*eG*e[5mC]*eA*eA) [compound 416517]”, the “% Inhibition of human Factor 7 mRNA levels” value worked out at 23%.

Still in this series, the particulars now being: HepB3 cells; gapmers (5-10-5, 3-14-3, 2-13-5 MOE) targeted to nucleobases 4868 to 4899 of SEQ ID NO: 1.
Regarding “422291 (antisense eT*eT*d[5mC]*dT*dG*d[5mC]*dA*dG*dG*dA*dG*d[5mC]*dG*dG*d[5mC]*e[5mC]*eT*eA*eA*eA) [compound 422291]”, the “% Inhibition of human Factor 7 mRNA levels” value came to 53%.

On to “422300 (antisense eG*eA*dG*d[5mC]*d[5mC]*d[5mC]*dG*dA*dG*dT*dT*d[5mC]*dT*dG*d[5mC]*eA*eG*eG*eA*eG) [compound 422300]”, for which the “% Inhibition of human Factor 7 mRNA levels” value is 65%.

Take “422148 (antisense eG*eG*eA*eG*e[5mC]*d[5mC]*d[5mC]*dG*dA*dG*dT*dT*d[5mC]*dT*dG*e[5mC]*eA*eG*eG*eA) [compound 422148]”: the “% Inhibition of human Factor 7 mRNA levels” value was determined as 57%.

As for “422223 (antisense eG*eA*eG*d[5mC]*d[5mC]*d[5mC]*dG*dA*dG*dT*dT*d[5mC]*dT*dG*d[5mC]*dA*dG*eG*eA*eG) [compound 422223]”, the “% Inhibition of human Factor 7 mRNA levels” value stood at 48%.

Still in this series, the particulars now being: HepB3 cells; gapmers targeted to nucleobases 11830 to 11869 of SEQ ID NO: 1 (Table 9).
Consider “422100 (antisense eG*eA*eG*eG*eA*dG*dA*d[5mC]*dA*dA*dT*dG*dG*dT*d[5mC]*eA*eG*eG*eG*e[5mC]) [compound 422100]”, for which the “% Inhibition of human Factor 7 mRNA levels” value is on record as 59%.

“422169 (antisense e[5mC]*eT*eG*dA*dG*dG*dA*dG*dA*d[5mC]*dA*dA*dT*dG*dG*dT*d[5mC]*eA*eG*eG) [compound 422169]”: the “% Inhibition of human Factor 7 mRNA levels” value is 56%.

For the substance “422245 (antisense eT*eG*dA*dG*dG*dA*dG*dA*d[5mC]*dA*dA*dT*dG*dG*dT*e[5mC]*eA*eG*eG*eG) [compound 422245]”, the “% Inhibition of human Factor 7 mRNA levels” value is reported as 24%.

“422242 (antisense eG*eG*dA*dG*dA*d[5mC]*dA*dA*dT*dG*dG*dT*d[5mC]*dA*dG*eG*eG*e[5mC]*eT*eG) [compound 422242]”: the “% Inhibition of human Factor 7 mRNA levels” value was determined as 64%.

As to “422099 (antisense eA*eG*eG*eA*eG*dA*d[5mC]*dA*dA*dT*dG*dG*dT*d[5mC]*dA*eG*eG*eG*e[5mC]*eT) [compound 422099]”, the “% Inhibition of human Factor 7 mRNA levels” value is on record as 48%.

With “422095 (antisense eA*e[5mC]*eA*eA*eT*dG*dG*dT*d[5mC]*dA*dG*dG*dG*d[5mC]*dT*eG*eG*eT*eT*eT) [compound 422095]”, the “% Inhibition of human Factor 7 mRNA levels” value turned out to be 60%.
